According to patent US7666882B2, “Anthranilamide insecticides” (E.I. du Pont de Nemours and Company, priority 2002, dated 2010):

Test system: potato leafhopper (Empoasca fabae Harris)
Experiment: Test D: control of potato leafhopper through contact and/or systemic means on Longio bean plant
Assay type: in vivo
Settings: sprayed at 250 ppm, adults post-infested, 6 days, 19-21° C.
Procedure: Test compounds were formulated using a solution containing 10% acetone, 90% water and 300 ppm X-77® Spreader Lo-Foam Formula non-ionic surfactant containing alkylarylpolyoxyethylene, free fatty acids, glycols and isopropanol (Loveland Industries, Inc.). The formulated compounds were applied in 1 mL of liquid through a SUJ2 atomizer nozzle with ⅛ JJ custom body (Spraying Systems Co.) positioned 1.27 cm (0.5 inches) above the top of each test unit. All experimental compounds in this screen were sprayed at 250 ppm, replicated three times. After spraying of the formulated test compound, each test unit was allowed to dry for 1 hour and then a black, screened cap was placed on top. The test units were held for 6 days in a growth chamber at 19-21° C. and 50-70% relative humidity. Each test unit was then visually assessed for insect mortality.
For evaluating control of potato leafhopper (Empoasca fabae Harris) through contact and/or systemic means, the test unit consisted of a small open container with a 5-6 day old Longio bean plant (primary leaves emerged) inside. White sand was added to the top of the soil and one of the primary leaves was excised prior to application. Test compounds were formulated and sprayed at 250 ppm and replicated three times as described for Test C. […] Each test unit was then visually assessed for insect mortality.

SMILES: CNC(=O)c1cc(Cl)cc(Cl)c1NC(=O)c1cc(OCC#N)nn1-c1ncccc1Cl [Compound 11]
- insect mortality: at least 80%
